# Where two headings read alike, the source gives them in different places.
# Legend:
# 2C9 = 2C9 (Homo sapiens, UniProt P11712)
# [1] = system: esterases in human plasma
# [2] = molecular target: T1, human IKr (HERG K+ channels) (Homo sapiens, UniProt Q12809); experiment: whole cell patch-clamp of IKr in HEK-293 cells expressing the HERG K+ channels; type: cell-based
# T1 construct: expressed in transfected cells; host or cells: HEK-293
# Method: The test system was mammalian HEK-293 cells expressing the HERG K+ channels, in which the potassium current was measured by whole cell patch-clamp technique.
# fed dogs = experiment: gastric emptying in fed conscious dogs (time of MMC return); conditions: IV infusion over 20 minutes before a solid meal
# Method: The data shown are normalized to the averaged vehicle control times of MMC return values.
# The objective of the experiments was to measure the time required for migrating motor contractions (MMCs) to return to baseline following ingestion of a solid meal. A drug-induced shortening of MMC return time indicated an early end of the digestive period due to accelerated gastric emptying. […] At the end of the drug infusion, the dogs were fed a meal. Gut contractions were recorded for a minimum of 60 minutes prior to the start of the drug infusion to establish the fasting state and to identify the onset of MMC in the duodenum, and at least 30 minutes after the return of MMC in the duodenum. Quantitative comparisons of the treatments were based on the time of MMC return as an index of gastric emptying following ingestion of a solid meal.
# CYP3A4 = CYP3A4 (Homo sapiens, UniProt P08684); conditions: recombinant enzyme
# CYP3A4, sequence (P08684 whole entry): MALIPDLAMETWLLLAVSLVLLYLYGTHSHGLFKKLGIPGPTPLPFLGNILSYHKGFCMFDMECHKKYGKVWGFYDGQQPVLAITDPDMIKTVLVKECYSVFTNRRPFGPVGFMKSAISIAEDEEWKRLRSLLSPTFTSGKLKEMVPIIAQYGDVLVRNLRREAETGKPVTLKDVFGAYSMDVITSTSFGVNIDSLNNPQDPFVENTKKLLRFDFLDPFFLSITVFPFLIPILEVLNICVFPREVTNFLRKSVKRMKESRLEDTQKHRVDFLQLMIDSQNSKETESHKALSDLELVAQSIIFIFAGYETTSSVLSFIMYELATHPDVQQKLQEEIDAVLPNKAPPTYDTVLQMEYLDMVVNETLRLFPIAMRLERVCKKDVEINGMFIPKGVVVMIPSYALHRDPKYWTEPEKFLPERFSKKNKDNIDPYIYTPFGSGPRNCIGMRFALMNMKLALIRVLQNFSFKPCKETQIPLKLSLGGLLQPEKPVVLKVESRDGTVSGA
# 5-HT4 Receptor [3] = molecular target: T2, 5-HT4 Receptor (Cavia porcellus, UniProt O70528); experiment: 5-HT4 receptor binding of the isomers of compound I, radiolabel displacement method; conditions: read-out: binding constant Ki
# T2 sequence (O70528 whole entry): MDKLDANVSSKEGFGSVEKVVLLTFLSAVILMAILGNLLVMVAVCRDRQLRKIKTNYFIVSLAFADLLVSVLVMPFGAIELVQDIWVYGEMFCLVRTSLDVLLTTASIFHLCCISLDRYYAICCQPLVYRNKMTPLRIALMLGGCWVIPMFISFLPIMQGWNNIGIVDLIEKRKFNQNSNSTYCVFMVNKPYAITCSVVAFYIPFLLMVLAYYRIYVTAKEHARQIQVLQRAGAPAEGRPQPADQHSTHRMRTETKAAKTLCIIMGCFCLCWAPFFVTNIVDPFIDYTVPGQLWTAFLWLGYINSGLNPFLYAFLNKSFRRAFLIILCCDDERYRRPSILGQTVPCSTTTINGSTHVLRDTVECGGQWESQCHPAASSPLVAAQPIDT
# human 5-HT4 receptor = molecular target: T3, human 5-HT4 receptor (Homo sapiens, UniProt Q13639); experiment: adenylyl cyclase stimulation in cells engineered to stably express human 5-HT4 receptor; type: cell-based
# T3 construct: expressed in transfected cells
# T3 sequence (Q13639 whole entry): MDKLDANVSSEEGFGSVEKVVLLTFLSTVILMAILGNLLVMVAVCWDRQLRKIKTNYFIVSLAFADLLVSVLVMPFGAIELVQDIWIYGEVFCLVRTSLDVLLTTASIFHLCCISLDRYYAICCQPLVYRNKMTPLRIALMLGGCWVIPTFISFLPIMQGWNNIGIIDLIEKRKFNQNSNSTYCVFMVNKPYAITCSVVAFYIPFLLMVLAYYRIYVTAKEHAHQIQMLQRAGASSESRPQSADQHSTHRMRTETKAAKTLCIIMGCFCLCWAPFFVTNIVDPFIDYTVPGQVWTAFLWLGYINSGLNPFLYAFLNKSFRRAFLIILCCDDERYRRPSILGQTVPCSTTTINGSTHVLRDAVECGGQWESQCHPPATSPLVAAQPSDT
# Excerpt: ARYx performed in vitro assays based on adenylyl cyclase stimulation in cells engineered to stably express human 5-HT4 receptor. […] [table]
# [4] = Metabolism in Fresh Human Blood; type: in vitro ADME; conditions: fresh heparinized human blood, 37° C., read-out: Half-life
# Method: Fresh blood was collected into heparinized tubes from 3 human donors and blood was stored on ice until incubation. Separate aliquots of blood from each donor were pipetted into 1.5 mL centrifuge tubes and the tubes were pre-incubated in a shaking water bath at 37° C. for 5 minutes. The reaction was initiated by the addition of 10 μL of the appropriate test compound stock to each tube (final concentration=100 μM). Incubations were quenched after 0, 5, 15, 30 and 60 minutes, by the addition of acetonitrile ([…]), centrifuged at 12,000 rpm for 2 minutes and the supernatant analyzed on an Agilent 1100 HPLC system. Separations were accomplished on a Keystone Intersil ODS2, 250×4.6 mm, […] column. The aqueous mobile phase consisted of 20 mM ammonium acetate buffer (pH 5.7) and the organic phase acetonitrile. A gradient was used: initial condition consisted of 20% acetonitrile for 1 minute. […] The system was then recycled to initial conditions over the course of 1 minute and held there for 4 minutes before the next injection. […] The results were expressed as amount of initial compound remaining and data subjected to kinetic analysis using WinNonLin. The half-lives for the individual compounds are given below in Table 6.
# [5] = type: in vitro ADME, human; conditions: for dependence of metabolism on NADPH / CYP450: microsomes
# Method: ATI-7505 (2 μM) was incubated with human microsomal protein (1 mg) in the presence or absence of NADPH regenerating system (cofactor).
# Thus the major biotransformation pathway for ATI-7505 occurs independently of CYP450 enzymes.
# The metabolism of these compounds was studied in pooled human microsomes in the presence and absence of the Cytochrome P-450 cofactor NADPH and both the disappearance of parent and the appearance of the corresponding acid metabolite, i.e., the corresponding compound-II isomer, monitored with time.
# In this experiment, the amount of substrate (compounds III, IV, V, and VI) remaining in the reaction after 5, 60, and 90 minutes were evaluated by a tandem HPLC-MS method. This remaining amount was correlated with the appearance of the metabolite compound II.
# 5-HT4 Receptor [6] = molecular target: T2, 5-HT4 Receptor; experiment: 5-HT4 Receptor Binding, Guinea Pig Striatum, [3H]GR113808; design: Guinea Pig Striatum; from tissue; host or cells: guinea pig striatum
# 2D6 = 2D6 (Homo sapiens, UniProt P10635); conditions: human
# 2D6, sequence (P10635 whole entry, the tested form may be a part): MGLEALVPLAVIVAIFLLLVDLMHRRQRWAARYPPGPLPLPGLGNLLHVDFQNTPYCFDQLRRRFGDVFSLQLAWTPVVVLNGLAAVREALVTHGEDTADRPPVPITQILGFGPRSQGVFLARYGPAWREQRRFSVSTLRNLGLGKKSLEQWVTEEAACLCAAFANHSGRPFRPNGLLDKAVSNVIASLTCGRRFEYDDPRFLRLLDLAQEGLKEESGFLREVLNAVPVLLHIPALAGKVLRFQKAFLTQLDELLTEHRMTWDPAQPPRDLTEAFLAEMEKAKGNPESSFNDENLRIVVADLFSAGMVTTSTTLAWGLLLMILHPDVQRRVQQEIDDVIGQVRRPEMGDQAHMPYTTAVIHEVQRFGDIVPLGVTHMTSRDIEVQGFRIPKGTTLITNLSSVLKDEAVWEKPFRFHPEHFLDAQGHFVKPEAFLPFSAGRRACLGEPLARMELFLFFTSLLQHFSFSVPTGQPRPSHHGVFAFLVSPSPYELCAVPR
# [7] = system: isolated, perfused guinea pig hearts
# [8] = tested at 10, 100, 1,000, and 10,000 nM
# T1 sequence (Q12809 whole entry): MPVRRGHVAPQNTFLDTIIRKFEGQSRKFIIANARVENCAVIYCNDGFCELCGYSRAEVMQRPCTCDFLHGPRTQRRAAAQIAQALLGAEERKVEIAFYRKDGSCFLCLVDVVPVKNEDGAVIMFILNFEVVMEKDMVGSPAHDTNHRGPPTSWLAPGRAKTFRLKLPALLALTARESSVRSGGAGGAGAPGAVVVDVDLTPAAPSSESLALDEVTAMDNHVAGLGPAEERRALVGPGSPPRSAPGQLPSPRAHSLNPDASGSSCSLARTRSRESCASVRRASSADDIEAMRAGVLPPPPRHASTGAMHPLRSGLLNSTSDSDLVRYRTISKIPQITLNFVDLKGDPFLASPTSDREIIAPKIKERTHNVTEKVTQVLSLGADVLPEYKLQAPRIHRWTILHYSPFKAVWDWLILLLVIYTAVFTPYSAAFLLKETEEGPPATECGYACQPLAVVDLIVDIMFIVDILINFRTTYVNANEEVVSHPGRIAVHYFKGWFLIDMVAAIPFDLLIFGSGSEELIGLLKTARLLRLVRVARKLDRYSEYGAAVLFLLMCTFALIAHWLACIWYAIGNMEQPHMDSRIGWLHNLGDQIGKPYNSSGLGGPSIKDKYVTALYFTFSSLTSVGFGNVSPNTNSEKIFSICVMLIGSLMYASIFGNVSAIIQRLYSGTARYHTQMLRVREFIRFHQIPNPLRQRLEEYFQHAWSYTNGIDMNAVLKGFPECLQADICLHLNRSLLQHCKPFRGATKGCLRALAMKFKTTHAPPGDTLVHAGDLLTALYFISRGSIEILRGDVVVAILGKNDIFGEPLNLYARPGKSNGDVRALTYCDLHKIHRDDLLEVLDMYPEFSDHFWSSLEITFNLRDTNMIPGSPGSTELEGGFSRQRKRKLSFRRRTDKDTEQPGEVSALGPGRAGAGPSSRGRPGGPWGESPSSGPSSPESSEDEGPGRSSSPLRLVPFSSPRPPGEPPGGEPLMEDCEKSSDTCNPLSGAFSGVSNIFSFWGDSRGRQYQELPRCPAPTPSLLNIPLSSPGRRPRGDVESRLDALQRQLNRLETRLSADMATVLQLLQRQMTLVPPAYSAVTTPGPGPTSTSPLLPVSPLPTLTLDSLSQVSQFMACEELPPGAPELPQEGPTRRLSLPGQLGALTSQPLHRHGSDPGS
# 2C9, sequence (P11712 whole entry): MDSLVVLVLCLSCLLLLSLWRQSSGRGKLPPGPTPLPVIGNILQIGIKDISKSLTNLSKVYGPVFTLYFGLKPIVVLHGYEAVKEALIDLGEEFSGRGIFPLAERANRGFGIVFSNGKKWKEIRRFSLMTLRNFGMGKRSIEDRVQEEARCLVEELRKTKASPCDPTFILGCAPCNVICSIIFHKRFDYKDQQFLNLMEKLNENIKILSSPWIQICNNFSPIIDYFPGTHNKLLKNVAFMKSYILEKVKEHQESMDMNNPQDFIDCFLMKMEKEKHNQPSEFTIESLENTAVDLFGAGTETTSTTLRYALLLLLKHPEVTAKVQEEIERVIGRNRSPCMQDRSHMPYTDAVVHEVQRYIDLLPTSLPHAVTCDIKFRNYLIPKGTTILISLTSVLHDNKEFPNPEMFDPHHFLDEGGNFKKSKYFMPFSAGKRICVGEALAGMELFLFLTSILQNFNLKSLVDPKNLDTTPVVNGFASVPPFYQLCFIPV
smiles,measurement,setting,value
"COc1cc(N)c(Cl)cc1C(=O)N[C@@H]1CCN(CCCCCC(=O)O[C@H]2CN3CCC2CC3)C[C@@H]1OC [ATI-7505, (R)-quinuclidin-3-yl 6-((3S,4R)-4-(4-amino-5-chloro-2-methoxybenzamido)-3-methoxypiperidin-1-yl)hexanoate]",inhibitory activity against 2C9,2C9,"Neither ATI-7505 nor its primary metabolite, ATI-7500 displayed significant inhibitory activity"
same,rate of metabolism by esterases in human plasma,[1],rapidly metabolized by esterases in human plasma
same,IC50,[2],24500 nM
same,"% IKr control (10,000 nM)","[2]; 10,000 nM, normalized to % control tail IKr",78.0%
same,time of MMC return as an index of gastric emptying,fed dogs,significantly shortened the time of MMC return
same,inhibitory activity against CYP3A4,CYP3A4,"Neither ATI-7505 nor its primary metabolite, ATI-7500 displayed significant inhibitory activity"
same,Ki,5-HT4 Receptor [3],1.4 nM
same,5-HT4 receptor agonism,human 5-HT4 receptor,highly potent 5-HT4 receptor agonist
same,EC50,"human 5-HT4 receptor; Potency EC50, concentration causing 50% maximal increase in adenylyl cyclase activity, estimated, unit nM printed in b338 only",4 nM
same,EC50,"human 5-HT4 receptor; Potency pEC50, negative logarithm of the EC50",3.55 nM
same,Efficacy % of 5HT (serotonin),human 5-HT4 receptor; estimated Emax relative to 5-HT,85%
same,EC50 fold lower than that of ATI-7500,human 5-HT4 receptor; versus ATI-7500,approximately 100 fold
same,EC50 fold lower than that of cisapride,human 5-HT4 receptor; versus cisapride,approximately 10 fold
same,"antral and small bowel contractility, colonic motor activity","fasted, conscious dogs; IV and PO",dose-dependent stimulation of antral and small bowel contractility with relatively little effect on colonic motor activity
same,prokinetic effects in the dog gut,"fasted, conscious dogs; IV and PO",caused prokinetic effects in the dog gut
same,MMC frequency in the proximal small intestine,"fasted, conscious dogs; PO, relative to the controls",increased MMC frequency in the proximal small intestine relative to the controls
same,migrating motor complex (MMC) characteristics,"fasted, conscious dogs; antrum, proximal, mid and distal small intestine",minimal effect
same,frequency of giant migrating contractions (GMC),"fasted, conscious dogs; dog, in vivo",small but significant (p<0.05) increase
same,potency relative to cisapride on a mg/kg-basis,"fasted, conscious dogs; dog, in vivo",approximately twice as potent as cisapride
same,retrograde giant migrating contractions (RGC),"fasted, conscious dogs; dog, in vivo",not associated with the development of retrograde giant migrating contractions (RGC)
same,"tolerability, side effects","fasted, conscious dogs; dog, in vivo","exhibited no side effects such as diarrhea, anorexia, or weight loss"
same,half-life at 100 µM,"[4]; Mean ± SD of 3 subjects, 100 μM",8.59 ± 0.077 min
same,half-life at 100 µM,"[4]; Subject 1, 100 μM",8.47 min
same,half-life at 100 µM,"[4]; Subject 2, 100 μM",8.61 min
same,half-life at 100 µM,"[4]; Subject 3, 100 μM",8.58 min
same,hydrolysis by esterase in human microsomes,[5],rapidly hydrolyzed by esterase
same,biotransformation in pooled human microsomes,"[5]; human, 2 µM","undergoes biotransformation to a single metabolite, ATI-7500"
same,dependence of metabolism on NADPH / CYP450,[5]; human,not dependent on CYP450
same,dependence of metabolism on NADPH / CYP450,[5],not dependent on the presence of NADPH
same,IC50,5-HT4 Receptor [6],8.3 nM
same,Ki,5-HT4 Receptor [6],1.4 nM
same,"nH, Hill coefficient",5-HT4 Receptor [6]; Guinea Pig Striatum,0.7
same,"affinity for the 5-HT4 receptor, fold greater than cisapride",5-HT4 Receptor [6]; versus cisapride,18 fold
same,"affinity for the 5-HT4 receptor, fold greater than the major metabolite, the carboxylic acid",5-HT4 Receptor [6]; versus major metabolite of ATI-7505,at least 360 fold
same,inhibitory activity against 2D6,2D6,"Neither ATI-7505 nor its primary metabolite, ATI-7500 displayed significant inhibitory activity"
same,modulation of cardiac electrophysiologic parameters,[7],very weak modulator of cardiac electrophysiologic parameters
same,"No Observed Effect Level (NOEL), Combined Parameters",[7]; combined set of 6 cardiac parameters,"1,000 nM"
same,"No Observed Effect Level (NOEL), AH Interval",[7]; [8],">10,000 nM"
same,"No Observed Effect Level (NOEL), HV Interval",[7]; [8],"1,000 nM"
same,"No Observed Effect Level (NOEL), MAPD90",[7]; [8],"1,000 nM"
same,"No Observed Effect Level (NOEL), QRS Interval",[7]; [8],">10,000 nM"
same,"No Observed Effect Level (NOEL), QT Interval",[7]; [8],"1,000 nM"
same,"No Observed Effect Level (NOEL), SA Interval",[7]; [8],">10,000 nM"

# From US20080076927A1, “Synthetic Methods and Intermediates for Stereoisomeric Compounds Useful for the Treatment of Gastrointestinal and Central Nervous System Disorders” (ARYx Therapeutics, Inc., priority 2005, published 2008)
